The record followed here is ChEMBL document CHEMBL1123679, “5-Quinone derivatives of 2'-deoxyuridine 5'-phosphate: inhibition and inactivation of thymidylate synthase, antitumor cell, and antiviral studies” (J Med Chem, 1987).

In assay [1] the target is T1, Thymidylate synthase (Lactobacillus casei, UniProt P00469).
T1 sequence (P00469 whole entry): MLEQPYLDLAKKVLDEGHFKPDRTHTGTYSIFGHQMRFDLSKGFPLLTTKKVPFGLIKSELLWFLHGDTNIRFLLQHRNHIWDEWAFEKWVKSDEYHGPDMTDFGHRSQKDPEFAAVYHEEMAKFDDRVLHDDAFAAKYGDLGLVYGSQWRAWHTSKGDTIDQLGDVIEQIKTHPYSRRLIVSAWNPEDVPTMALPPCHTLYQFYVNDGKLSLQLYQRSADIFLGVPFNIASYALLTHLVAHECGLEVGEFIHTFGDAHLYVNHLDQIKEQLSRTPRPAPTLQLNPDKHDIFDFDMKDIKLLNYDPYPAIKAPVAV
Kind of assay: Ability to inhibit the thymidylate synthase from Lactobacillus casei was determined and expressed as inhibition constant(Ki). On the set-up: species or system Lacticaseibacillus casei.

A short description of assay [2]: Ability to inhibit the proliferation or tumor cell growth by 50% of the human T-cell lymphoblast (Molt/4F) cells was determined. Format: functional. The conditions noted are these: read-out: ID50 (the source's name).
For assay [3], the species on record is Oryctolagus cuniculus. Briefly: Minimal inhibitory concentration against HSV-2 (196)-induced cytopathogenicity by 50% in rabbit kidney cell cultures. Format: functional. On the technique in general: Protection from cytopathic effect is a common read-out in antiviral testing.
The species entered for assay [4] is Oryctolagus cuniculus. Kind of assay: Minimal inhibitory concentration required to cause a microscopically detectable alteration of normal cell morphology of rabbit kidney cell cultures. Format: functional.
The species entered for assay [5] is Oryctolagus cuniculus. Kind of assay: Minimal inhibitory concentration against HSV-1 (KOS)-induced cytopathogenicity by 50% in rabbit kidney cell cultures. Format: functional.
The species named for assay [6] is Oryctolagus cuniculus. Kind of assay: Minimal inhibitory concentration against vaccinia virus-induced cytopathogenicity by 50% in rabbit kidney cell cultures. Format: functional.
The species named for assay [7] is Oryctolagus cuniculus. Briefly: Minimal inhibitory concentration against HSV-1 (F)-induced cytopathogenicity by 50% in rabbit kidney cell cultures. Format: functional.
The next assay concerns L1210. Kind of assay: Ability to inhibit the proliferation or tumor cell growth by 50% of the murine leukemia L1210 cells was determined. Conditions: Mus musculus, read-out: ID50 (the source's name). Format: functional.
Assay [8] is filed under the species Oryctolagus cuniculus. Kind of assay: Minimal inhibitory concentration against vesicular stomatitis virus-induced cytopathogenicity by 50% in rabbit kidney cell cultures. Format: functional.
The species named for assay [9] is Oryctolagus cuniculus. Briefly: Minimal inhibitory concentration against HSV-2 (G)-induced cytopathogenicity by 50% in rabbit kidney cell cultures. Format: functional.
Assay [10] is filed under the species Oryctolagus cuniculus. Briefly: Minimal inhibitory concentration against HSV-2 (Lyons)-induced cytopathogenicity by 50% in rabbit kidney cell cultures. Format: functional.
The subject of assay [11] is Raji. Kind of assay: Inhibition of human B-cell lymphoblast Raji cell proliferation. Format: functional. Conditions: read-out: ID50 (the source's name).
The species named for assay [12] is Oryctolagus cuniculus. Briefly: Minimal inhibitory concentration against HSV-1 (McIntyre)-induced cytopathogenicity by 50% in rabbit kidney cell cultures. Format: functional.
In assay [13] the target is T1, Thymidylate synthase. Briefly: Ability to inhibit the thymidylate synthase from Lactobacillus casei was determined and expressed as inhibition constant (Ki). On the set-up: species or system Lacticaseibacillus casei.
The target in assay [14] is Thymidylate synthase (Mus musculus, UniProt P07607). Briefly: Ability to inhibit the thymidylate synthase from murine leukemia L1210 cells was determined and expressed as inhibition constant(Ki). Format: cell-based.
The test system of assay [15] is Raji. Kind of assay: Inhibition of human B-cell lymphoblast Raji cell proliferation; Value ranges from (10-55.6). Format: functional. The conditions noted are these: read-out: ID50 (the source's name).
The species entered for assay [16] is Oryctolagus cuniculus. Kind of assay: Minimal inhibitory concentration required to cause a microscopically detectable alteration of normal cell morphology of rabbit kidney cell culture. Format: functional.

Converted amounts (≈) assume the structure as drawn.

Sequence of Thymidylate synthase (Mus musculus, UniProt P07607) (P07607 whole entry): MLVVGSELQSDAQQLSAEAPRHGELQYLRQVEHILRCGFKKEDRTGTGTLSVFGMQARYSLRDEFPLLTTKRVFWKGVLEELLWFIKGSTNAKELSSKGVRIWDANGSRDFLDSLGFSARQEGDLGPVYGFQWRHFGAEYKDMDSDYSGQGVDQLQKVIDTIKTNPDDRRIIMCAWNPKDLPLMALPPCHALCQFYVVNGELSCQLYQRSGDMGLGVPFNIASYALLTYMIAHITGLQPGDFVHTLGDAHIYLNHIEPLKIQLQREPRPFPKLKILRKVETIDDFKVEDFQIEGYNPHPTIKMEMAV

Consider `COc1c(C)c(C)c(OC)c(-c2cn([C@H]3C[C@H](O)[C@@H](COP(=O)(O)O)O3)c(=O)[nH]c2=O)c1C`, for which the affinity at Thymidylate synthase [1], expressed as Ki, was 1400 nM.
As to `CC1=C(c2cn([C@H]3C[C@H](O)[C@@H](CO)O3)c(=O)[nH]c2=O)C(=O)c2ccccc2C1=O`, the IC50 in assay [2] was 30.9 µg/mL (≈ 77.6 µM); in the assay on L1210, 27.4 µg/mL (≈ 68.8 µM); in the assay on Raji [11] it was 33.5 µg/mL (≈ 84.1 µM). Besides, the MIC in the assay filed under Oryctolagus cuniculus [3] is over 10 µg/mL; in the assay listed under Oryctolagus cuniculus [4], 40 µg/mL (≈ 100 µM); in the assay listed under Oryctolagus cuniculus [5] it was over 10 µg/mL; in the assay listed under Oryctolagus cuniculus [6], over 10 µg/mL; in the assay filed under Oryctolagus cuniculus [7], over 10 µg/mL; in the assay listed under Oryctolagus cuniculus [8], over 10 µg/mL. For the same compound, the MIC in the assay listed under Oryctolagus cuniculus [9], in the assay filed under Oryctolagus cuniculus [10] and in the assay listed under Oryctolagus cuniculus [12] was over 10 µg/mL each time.
Regarding `CC1=C(C)C(=O)C(c2cn([C@H]3C[C@H](O)[C@@H](CO)O3)c(=O)[nH]c2=O)=CC1=O`, the IC50 is 66.8 µg/mL (≈ 184 µM) in assay [2], 40.5 µg/mL (≈ 112 µM) in the assay on L1210 and over 100 µg/mL with Raji [11]. For the same compound, the MIC was 70 µg/mL (≈ 193 µM) in the assay listed under Oryctolagus cuniculus [3]; 200 µg/mL (≈ 552 µM) in the assay listed under Oryctolagus cuniculus [4]; 150 µg/mL (≈ 414 µM) in the assay listed under Oryctolagus cuniculus [5]; over 100 µg/mL in the assay filed under Oryctolagus cuniculus [6]; over 100 µg/mL in the assay listed under Oryctolagus cuniculus [7]; over 100 µg/mL in the assay filed under Oryctolagus cuniculus [8]. Besides, the MIC was over 100 µg/mL in the assay listed under Oryctolagus cuniculus [9], 70 µg/mL (≈ 193 µM) in the assay filed under Oryctolagus cuniculus [10] and 70 µg/mL (≈ 193 µM) in the assay filed under Oryctolagus cuniculus [12].
`COc1c(C)c(-c2cn([C@H]3C[C@H](O)[C@@H](COP(=O)(O)O)O3)c(=O)[nH]c2=O)c(OC)c2ccccc12`: at Thymidylate synthase [1], the affinity corresponds to a Ki of 2400 nM.
In the case of `O=c1[nH]c(=O)n([C@H]2C[C@H](O)[C@@H](CO)O2)cc1Br` [BROXURIDINE], the MIC in the assay listed under Oryctolagus cuniculus [3] was 10 µg/mL (≈ 32.6 µM); in the assay listed under Oryctolagus cuniculus [4], over 400 µg/mL; in the assay listed under Oryctolagus cuniculus [5], 0.02 µg/mL (≈ 0.0651 µM); in the assay listed under Oryctolagus cuniculus [6], 7 µg/mL (≈ 22.8 µM); in the assay listed under Oryctolagus cuniculus [7], 0.07 µg/mL (≈ 0.228 µM); in the assay filed under Oryctolagus cuniculus [8] it was over 400 µg/mL. For the same compound, the figures for the MIC in the assay filed under Oryctolagus cuniculus [9], in the assay listed under Oryctolagus cuniculus [10] and in the assay filed under Oryctolagus cuniculus [12] were 2 µg/mL (≈ 6.51 µM), 20 µg/mL (≈ 65.1 µM) and 0.02 µg/mL (≈ 0.0651 µM), respectively.
For `COc1cc(-c2cn([C@H]3C[C@H](O)[C@@H](COP(=O)(O)O)O3)c(=O)[nH]c2=O)c(OC)c(C)c1C`, the Ki (in general, a dissociation constant, usually derived from enzyme kinetics or from competition with a known ligand) on Thymidylate synthase [13] was found to be 3600 nM.
In the case of `CC1=C(C)C(=O)C(c2cn([C@H]3C[C@H](O)[C@@H](COP(=O)(O)O)O3)c(=O)[nH]c2=O)=CC1=O`, the Ki on Thymidylate synthase [1] was determined as 590 nM; at Thymidylate synthase [14], 6100 nM.
On to `CC1=C(c2cn([C@H]3C[C@H](O)[C@@H](COP(=O)(O)O)O3)c(=O)[nH]c2=O)C(=O)c2ccccc2C1=O`, for which the results for the Ki on Thymidylate synthase [1] and at Thymidylate synthase [14] were 610 nM and 1900 nM, respectively.
At Thymidylate synthase [1], `O=C1C=CC(=O)C(c2cn([C@H]3C[C@H](O)[C@@H](COP(=O)(O)O)O3)c(=O)[nH]c2=O)=C1` had a Ki of 2000 nM.
For the compound `O=c1[nH]c(=O)n([C@H]2C[C@H](O)[C@@H](CO)O2)cc1[N+](=O)[O-]`, the IC50 in the assay with L1210 came out at 0.003 µg/mL (≈ 0.011 µM).
As to `COc1c(C)c(-c2cn([C@H]3C[C@H](O)[C@@H](CO)O3)c(=O)[nH]c2=O)c(OC)c2ccccc12`, the IC50 in assay [2] is over 100 µg/mL; with L1210, over 100 µg/mL; in the assay with Raji [15] it was 55.6 µg/mL (≈ 130 µM).
`O=C1C=CC(=O)C(c2cn([C@H]3C[C@H](O)[C@@H](CO)O3)c(=O)[nH]c2=O)=C1`: the IC50 in [2] was over 100 µg/mL; in the assay with L1210 it was 35.7 µg/mL (≈ 107 µM); in the assay with Raji [11], over 100 µg/mL. In addition, the MIC in the assay filed under Oryctolagus cuniculus [3] was 70 µg/mL (≈ 209 µM); in the assay filed under Oryctolagus cuniculus [5], 20 µg/mL (≈ 59.8 µM); in the assay listed under Oryctolagus cuniculus [6], 70 µg/mL (≈ 209 µM); in the assay listed under Oryctolagus cuniculus [7] it was 20 µg/mL (≈ 59.8 µM); in the assay listed under Oryctolagus cuniculus [8] it was over 200 µg/mL; in the assay filed under Oryctolagus cuniculus [9], 70 µg/mL (≈ 209 µM). In addition, the MIC was 70 µg/mL (≈ 209 µM) in the assay filed under Oryctolagus cuniculus [10] and 150 µg/mL (≈ 449 µM) in the assay listed under Oryctolagus cuniculus [12].
In the case of `CC1=C(C)C(=O)C(c2cn([C@H]3C[C@H](O)[C@@H](CO)O3)c(=O)[nH]c2=O)=C(C)C1=O`, the values for the IC50 (in [2]; in the assay on L1210; in the assay with Raji [11]) were 29.7 µg/mL (≈ 78.9 µM), 65.6 µg/mL (≈ 174 µM) and 51.1 µg/mL (≈ 136 µM), respectively. Also, the MIC in the assay listed under Oryctolagus cuniculus [3] was over 200 µg/mL; in the assay filed under Oryctolagus cuniculus [4] it was over 200 µg/mL; in the assay listed under Oryctolagus cuniculus [5] it was over 200 µg/mL; in the assay filed under Oryctolagus cuniculus [6] it was over 200 µg/mL; in the assay filed under Oryctolagus cuniculus [7], over 200 µg/mL; in the assay listed under Oryctolagus cuniculus [8] it was over 100 µg/mL. Further, the MIC in the assay filed under Oryctolagus cuniculus [9], in the assay listed under Oryctolagus cuniculus [10] and in the assay listed under Oryctolagus cuniculus [12] was over 200 µg/mL each time.
Consider `COc1c(C)c(C)c(OC)c(-c2cn([C@H]3C[C@H](O)[C@@H](CO)O3)c(=O)[nH]c2=O)c1C`, for which the IC50 (in [2]; with L1210; in the assay on Raji [11]) was over 100 µg/mL throughout.
As for `COc1cc(-c2cn([C@H]3C[C@H](O)[C@@H](CO)O3)c(=O)[nH]c2=O)c(OC)c(C)c1C`, the IC50 (in assay [2]; with L1210; with Raji [11]) was over 100 µg/mL throughout.
On to `O=c1[nH]c(=O)n([C@H]2C[C@H](O)[C@@H](CO)O2)cc1I` [IDOXURIDINE], for which the MIC is 1 µg/mL (≈ 2.82 µM) in the assay listed under Oryctolagus cuniculus [3]; 0.2 µg/mL (≈ 0.565 µM) in the assay filed under Oryctolagus cuniculus [5]; 0.7 µg/mL (≈ 1.98 µM) in the assay filed under Oryctolagus cuniculus [6]; 0.7 µg/mL (≈ 1.98 µM) in the assay filed under Oryctolagus cuniculus [7]; over 400 µg/mL in the assay listed under Oryctolagus cuniculus [8]; 0.7 µg/mL (≈ 1.98 µM) in the assay listed under Oryctolagus cuniculus [9]. The MIC was 0.7 µg/mL (≈ 1.98 µM) in the assay filed under Oryctolagus cuniculus [10], over 400 µg/mL in the assay filed under Oryctolagus cuniculus [16] and 0.7 µg/mL (≈ 1.98 µM) in the assay filed under Oryctolagus cuniculus [12].
For `CC1=C(C)C(=O)C(c2cn([C@H]3C[C@H](O)[C@@H](COP(=O)(O)O)O3)c(=O)[nH]c2=O)=C(C)C1=O`, the Ki at Thymidylate synthase [1] amounted to 1300 nM; at Thymidylate synthase [14], 5100 nM.
